The data set can be described thus: Pharmacokinetic study after intravenous administration. The class given is in vivo, SD rats. To be noted: rats. The protocol: The advanced Automatic Blood Collection System (Instech, USA) was applied to study the pharmacokinetic feature of various MTX formulations. Female SD rats (200–220 g) were acclimatized at 25 ± 2 °C for 1 week before the experiments. Animals were randomized into 3 groups and each group contained 3 rats. Group I, II, and III were intravenously given free MTX, Lipo@MTX, and Cy-Lipo@MTX respectively at a dose of 10 mg MTX-equivalent/kg body weight. Blood (200 μL) was obtained at 0.25, 0.5, 1, 2, 4, 8, 12, 24, 48, and 72 h through jugular vein after administration. 150 μL of plasma was combined with 450 μL acetonitrile to precipitate proteins, and drug content of samples was analyzed by HPLC. The pharmacokinetic software (DAS 2.0) was used to assess key pharmacokinetic parameters including mean residence time (MRT), area under the curve (AUC), peak plasma concentration (Cmax), half-life (t1/2), and time to maximal plasma concentration (Tmax).

Setting [1] is: female, Sprague-Dawley (SD), rat, plasma, iv, 10 mg/kg, 10 mg MTX-equivalent/kg.

Take `CN(Cc1cnc2nc(N)nc(N)c2n1)c1ccc(C(=O)N[C@@H](CCC(=O)O)C(=O)O)cc1` [free MTX, Methotrexate]: under setting [1], the AUC(0-t) came to 62400 ± 21500 ng·h/mL, the Cmax was 13500 ± 1960 ng/mL and the clearance was 1.43 mL/min. Also, the MRT last (female, Sprague-Dawley (SD), rat, plasma, iv, 10 mg/kg, i.v., 10 mg MTX-equivalent/kg, read-out: MRT(0-t)) is 6.27 ± 2.52 h. In addition, the half-life (female, Sprague-Dawley (SD), rat, plasma, iv, 10 mg/kg, i.v., 10 mg MTX-equivalent/kg, read-out: t1/2β (converted)) is 5.23 ± 2.72 h. The concentration at 0.25 h (female, Sprague-Dawley (SD), rat, plasma, iv, after 0.25 h, i.v., 10 mg/kg, read-out: plasma MTX concentration) is 13500 ± 1960 ng/mL. Also, the concentration at 4 h (female, Sprague-Dawley (SD), rat, plasma, iv, after 4 h, i.v., 10 mg/kg, read-out: plasma MTX concentration) came to 4590 ± 1610 ng/mL. Moreover, under “female, Sprague-Dawley (SD), rat, plasma, iv, after 12 h, i.v., 10 mg/kg, read-out: plasma MTX concentration”, the concentration at 12 h amounted to 1140 ± 490 ng/mL. Further, the concentration at 24 h (female, Sprague-Dawley (SD), rat, plasma, iv, after 24 h, i.v., 10 mg/kg, read-out: plasma MTX concentration) was 430 ± 360 ng/mL. The Vss (i.v., 10 mg MTX-equivalent/kg) is 0.58 ± 0.10 mg/kg/(mg/mL).
